The values below come from US10712349B2, “Circulating KIM-1 levels for detection of pathologies associated with injury to, or cancer of, the kidney” (THE BRIGHAM AND WOMEN'S HOSPITAL, INC., priority 2014, dated 2020).

For one series, the system named is male BALB/c mice. Kind of series: Liver injury in mice (CCl4), specificity of plasma KIM-1 to renal injury. The series is classed as in vivo, mouse. To be noted: 48 hours. Here is the method: As controls, male BALB/c mice were injected intraperitoneally once with 0.5 ml/kg of 10% CC14 in vegetable oil (n=5) or vegetable oil alone (vehicle, n=5), as previously de-scribed.^21 Forty-eight hours after CCl4 administration, mice were euthanized and urine, plasma, and tissue samples were collected and analyzed.
(§1) Microbead-based assays for rodent and human plasma and serum KIM-1 were developed, and extensive validation of the assays were performed using previously described approaches.^24 Urinary KIM-1 in rodents and humans was measured using microbead based assays as described previously.5,7,25,26 Capture antibodies (MAB 1817 for mouse, AF1750 for human [R&D Systems]), MARKE^25 antibody for rat (developed at Brigham and Women's Hospital) were conjugated with COOH polystyrene beads (Bio-Rad) with an amine coupling kit (Bio-Rad) using N-hydroxysuccinamide-1-ethyl-3-(3-dimethylaminopropyl) carbodiimide chemistry according to the manufacturer's protocol. Approximately 6000 beads in […] of sample diluent buffer (0.1M HEPES, 0.1M NaCl, 0.1% Tween-20, and 1% BSA; pH, 7.4; filter sterilized) were incubated with […] of sample or recombinant KIM-1 protein (1817-TM-050-CF for mice, 1750-TM for humans [R&D systems]), and KIM-FC for rats [developed at Brigham and Women's Hospital]) for 45 minutes. After incubation, beads were washed three times with PBS with Tween and incubated with biotinylated anti-KIM-1 detection antibody (BAF 1817 for mice, BAF 1750 for humans [R&D Systems]) and MARKE-2 for rats [developed at Brigham and Women's Hospital]) for 30 minutes. Beads were washed again with PBS with Tween and incubated for 15 minutes with the streptavidin-phycoerythrin solution (Invitrogen). The signal from the fluorochrome, which is directly proportional to the amount of antigen bound at the microbead surface, is captured using the Bio-Plex system (Bio-Rad). Data were interpreted using a five parametric logistic regression analysis.
To evaluate the specificity of plasma KIM-1 to renal injury, mice were treated with carbon tetrachloride (CCl4), a known hepatotoxicant. […] Thus, plasma KIM-1 was not affected by liver injury.

For another series, the system named is Male Sprague-Dawley rats. Put plainly: Gentamicin-induced nephrotoxicity in rats. The series is classed as in vivo, rat. The settings on record: for kidney histopathologic analysis: kidney tissue collected day 11. Here is the method:
Rats were provided with free access to food and water and subjected to a 12-hour light and dark cycle. Rats were euthanized on day 11, and urine, plasma, and tissue samples were collected and analyzed. Tissue samples were fixed in 10% neutral buffered formalin or snap frozen. For histologic assessment, […] paraffin sections were prepared and stained with hematoxylin and eosin. The rat studies were undertaken in accordance with criteria outlined in a license granted under the Animals (Scientific Procedures) Act 1986 and approved by the University of Liverpool Animal Ethics Committee.
as §1
The inventors also investigated whether plasma KIM-1 levels can serve as a biomarker in gentamicin-induced kidney injury in a different rodent species, rats. […] Plasma, urine, and kidney tissue were collected on day 11. The extent of kidney damage was assessed by histo-pathologic analysis and changes in plasma creatinine. […] The lumens of the tubules were filled with casts and dead cells. […] Thus, plasma KIM-1 is a sensitive marker of ischemia and toxin-induced injury to the proximal tubule in mice and rats.

[1] abbreviates: single dose of 10% CCl4, 0.5 ml/kg.

Entries after “also recorded” stand apart in the source; their conditions may differ.

With `ClC(Cl)(Cl)Cl` [CCl4, carbon tetrachloride], the liver histopathology entry with male BALB/c mice (single dose of 10% CCl4, 0.5 ml/kg intraperitoneally) is given as “liver necrosis”. Moreover, in the series on male BALB/c mice (setting [1]), the “kidney morphology (histopathology)” value is given as “No histopathologic changes”, the “plasma KIM-1” value is listed as “no significant alterations; also recorded: not changed”, the plasma creatinine entry is reported as “no significant alterations” and the “urinary KIM-1” value is listed as “no significant alterations”.
Consider gentamicin, for which the kidney histopathologic analysis entry was “brush border loss, focal tubular necrosis, and interstitial inflammation” in the series on Male Sprague-Dawley rats (50 mg/kg gentamicin per day intraperitoneally for 10 days); “extensive diffuse cell necrosis” with Male Sprague-Dawley rats (daily doses of 200 mg/kg gentamicin for 10 days). Also, the “urinary KIM-1 levels (normalized to urine creatinine)” value in the series with Male Sprague-Dawley rats (10 daily doses of 50 or 200 mg/kg, day 11) was “significantly increased”. In the series with Male Sprague-Dawley rats (50 or 200 mg/kg daily for 10 days, euthanized day 11 (FIG. 1H)), the “kidney sections, hematoxylin and eosin staining” value is “loss of brush border, necrosis, and sloughing of cells into the tubular lumen”.
